Where two headings read alike, the source gives them in different places.

Experiment [1] deals with NMDA receptor. Kind of experiment: Maximum contraction of isolated guinea pig longitudinal ileum muscle preparations induced by L-Glu. As to conditions: for excitation: concentration, direct excitation of the preparation; for antagonism % (restrain rate of contraction of preparations): compound 10^−5M, contraction induced by L-Glu. From the text: According to the literature (Luzzi, Br J Pharmacol, 95:1271, 1988), maximum contraction of isolated longitudinal ileomuscle preparations of guinea pig induced by L-Glu, were used to examine the activities of the compounds on the NMDA receptor.

In experiment [2] the test system is anoxia induced by sodium nitrite in mice. Kind of experiment: Anti-cerebral anoxia in mice, anoxia induced by sodium nitrite. It is filed as in vivo. As to conditions: sodium nitrite 225 mg/kg ip, compound 20 mg/kg sc; for ILS at 20 mg/kg: Mus musculus, sc. The method, then:
The rates of the prolongation of 9 compounds (IV-2, 10, 23, 32, 34, 36, 39, 40, 41) were more than 50%, which indicated the effect of anti-cerebral anoxia. IV-23 and IV-2 prolonged the survival duration by 100% of the animals, showing remarkably protective action for cerebral anoxia. (Table 3)
One model was established to test the time needed for mice to die because of anoxia caused by sodium nitrite (225 mg/kg, ip). IV-23 (20 mg/kg, sc) can prolong the time for 100%, indicating significant anti-cerebral anoxic anoxia activity.

The mark [3] stands for this setting: mice, read-out: Prolonging the survival duration (%).
The mark [4] stands for this setting: read-out: Prolonging the survival duration (%), mice.

Turning to `O=C(CN1CCN(C(=O)c2ccccc2)CC1)c1ccccc1` [IV-1, N^1-benzoyl-N^4-phenacyl-piperazine], the excitation in experiment [1] (unit not given) was 3 × 10^−6. In experiment [1] (excite preparations directly and induce contraction), the Glu-like excited action result was “could excite preparations directly”. For the same compound, the ILS at 20 mg/kg in experiment [2] (setting [3]) came out at 3%.

For the compound `O=C(CN1CCN(CC(=O)c2ccccc2)CC1)c1ccccc1` [IV-2, N^1,N^4-diphenacyl-piperazine], the “antagonism % (restrain rate of contraction of preparations)” value in experiment [1] was found to be 25%.

As for `O=C(CN1CCN(C(=O)c2ccc([N+](=O)[O-])cc2)CC1)c1ccccc1` [IV-3, N^1-(4-nitrobenzoyl)-N^4-phenacyl-piperazine], the “antagonism % (restrain rate of contraction of preparations)” value in experiment [1] amounted to 37%. Moreover, the ILS at 20 mg/kg in experiment [2] (setting [3]) worked out at 7%.

For the compound `O=C(CN1CCN(CC(=O)c2ccc(Cl)cc2)CC1)c1ccccc1` [IV-5, N^1-phenacyl-N^4-(4-chlorophenacyl) piperazine], in experiment [1], the “antagonism % (restrain rate of contraction of preparations)” value came out at 30%. Moreover, the ILS at 20 mg/kg in experiment [2] (setting [3]) was found to be 22%.

For `O=C(CN1CCN(CC(=O)c2ccc(Cl)cc2)CC1)c1ccc(Cl)cc1` [IV-6, N^1,N^4-di (4-chlorophenacyl) piperazine], the “antagonism % (restrain rate of contraction of preparations)” value in experiment [1] is recorded as 25%. Further, the ILS at 20 mg/kg in experiment [2] (setting [3]) was determined as 4%.

For `O=C(CN1CCN(CC(=O)c2ccc3ccccc3c2)CC1)c1ccccc1` [IV-7, N^1-(2-naphthoylmethyl)-N^4-phenacyl-piperazine], the “antagonism % (restrain rate of contraction of preparations)” value in experiment [1] was determined as 25%. In addition, the ILS at 20 mg/kg in experiment [2] (setting [3]) amounted to 21%.

`CC(C(=O)c1ccccc1)N1CCN(CC(=O)c2ccccc2)CC1` (stereo not drawn) [IV-8, N^1-(1-benzoylethyl)-N^4-phenacyl-piperazine]: the “antagonism % (restrain rate of contraction of preparations)” value in experiment [1] worked out at 25%. Also, the “Prolonging the survival duration (%)” value in experiment [2] (mice) is 21%.

On to `CC(C(=O)c1ccccc1)N1CCN(CC(=O)c2ccccc2)CC1` (stereo not drawn) [IV-13, N^1-(1-benzoylethyl)-N^4-phenacyl-piperazine], for which the ILS at 20 mg/kg in experiment [2] (setting [4]) stood at 32%.

Turning to `COc1ccc(C(=O)CN2CCN(C(=O)Cc3ccccc3O)CC2)cc1` [IV-16, N^1-(4-methoxyphenacyl)-N^4-[(2-hydroxy)phenylacetyl] piperazine], in experiment [2] (setting [4]), the ILS at 20 mg/kg stood at 30%.

For the compound `CC(C(=O)c1ccccc1)N1CCN(C(=O)C(O)c2ccc(Cl)cc2)CC1` (stereo not drawn) [IV-17, N^1-(1-benzoylethyl)-N^4-[2-hydroxy-2-(4-chlorophenyl)acetyl] piperazine], the ILS at 20 mg/kg in experiment [2] (setting [4]) came out at 14%.

On to `CC(C(=O)c1ccccc1)N1CCN(C(=O)Cc2ccccc2O)CC1` (stereo not drawn) [IV-18, N^1-(1-benzoylethyl)-N^4-[(2-hydroxy)phenylacetyl] piperazine], for which the ILS at 20 mg/kg in experiment [2] (setting [4]) stood at 25%.

For `O=C(CN1CCN(C(=O)C(O)c2ccc(Cl)cc2)CC1)c1ccccc1` (stereo not drawn) [IV-19, N^1-phenacyl-N^4-[2-hydroxy-2-(4-chlorophenyl)acetyl] piperazine], the ILS at 20 mg/kg in experiment [2] (setting [3]) was 18%.

On to `O=C(CN1CCN(CC(=O)c2ccccc2)CC1)Nc1ccccc1` [IV-24, N^1-phenacyl-N^4-[2-(phenylamino)-2-oxo-ethyl] piperazine], for which the ILS at 20 mg/kg in experiment [2] (setting [3]) was 34%.

With `O=C(CN1CCN(CC(=O)NCc2ccccc2)CC1)NCc1ccccc1` [IV-25, N^1,N^4-di[2-(benzylamino)-2-oxo-ethyl] piperazine], the ILS at 20 mg/kg in experiment [2] (setting [3]) amounted to 30%.

On to `CC(C(=O)c1ccccc1)N1CCN(CC(=O)NCc2ccccc2)CC1` (stereo not drawn) [IV-26, N^1-(1-benzoylethyl)-N^4-[2-(benzylamino)-2-oxo-ethyl] piperazine], for which, in experiment [2] (setting [4]), the ILS at 20 mg/kg came out at 36%.

For the compound `O=C(CN1CCN(CC(=O)c2ccccc2)CC1)NCc1ccc2c(c1)OCO2` [IV-32, N^1-phenacyl-N^4-[2-(3,4-methylenedioxybenzylamino)-2-oxo-ethyl] piperazine], in experiment [2] (setting [3]), the ILS at 20 mg/kg was greater than 50%.

For the compound `O=C(c1ccccc1)N1CCN(CC(O)c2ccccc2)CC1` (stereo not drawn) [IV-34, N^1-benzoyl-N^4-(2-phenylethyl-2-ol) piperazine], in experiment [1], the “antagonism % (restrain rate of contraction of preparations)” value stood at 25%.

Take `O=C(CN1CCN(CC(O)c2ccccc2)CC1)NCc1ccccc1` (stereo not drawn) [IV-37, N^1-[2-(benzylamino)-2-oxo-ethyl]-N^4-(2-phenylethyl-2-ol) piperazine]: the “Prolonging the survival duration (%)” value in experiment [2] (mice) is reported as 13%.

For `CC(C(=O)c1ccccc1)N1CCN(C(=O)[C@@H](O)c2ccccc2)CC1` (stereo partly drawn) [IV-44, N^1-(S-2-hydroxy-1-oxo-2-phenylethyl)-N^4-(1-benzoylethyl) piperazine], the “Prolonging the survival duration (%)” value in experiment [2] (mice) is reported as 3%.

Turning to `N#Cc1cccc(CS(=O)(=O)N2CCN(CC(=O)c3ccccc3)CC2)c1` [IV-48, N^1-phenacyl-N^4-(3-cyanophenylmethylsulfonyl) piperazine], in experiment [2] (setting [3]), the ILS at 20 mg/kg is 16%.

For `COc1ccc2cc(C(=O)C(C)N3CCN(CC(=O)NC(C)c4ccccc4)CC3)ccc2c1Cl` (stereo not drawn) [IV-49, N^1-[1-(5-chloro-6-methoxy-2-naphthoyl)ethyl]-N^4-[2-(1-phenylethanamino)-2-oxo-ethyl] piperazine], the “Prolonging the survival duration (%)” value in experiment [2] (mice) came to 30%.

As for `O=C(CN1CCN(S(=O)(=O)Cc2ccc(Oc3ccccc3)cc2)CC1)c1ccccc1` [IV-53, N^1-phenacyl-N^4-(4-phenoxybenzylsulfonyl) piperazine], in experiment [2] (setting [3]), the ILS at 20 mg/kg turned out to be 15%.

For `O=C(CN1CCN(S(=O)(=O)Cc2ccccc2CS(=O)(=O)c2ccccc2)CC1)c1ccccc1` [IV-54, N^1-phenacyl-N^4-[2-(benzenesulfonylmethyl)benzylsulfonyl] piperazine], the ILS at 20 mg/kg in experiment [2] (setting [3]) worked out at 25%.

Take `O=C(CN1CCN(S(=O)(=O)Cc2ccc(C(F)(F)F)cc2)CC1)c1ccccc1` [IV-55, N^1-phenacyl-N^4-(4-trifluoromethylbenzylsulfonyl) piperazine]: the ILS at 20 mg/kg in experiment [2] (setting [3]) was determined as 4%.

For the compound `O=C(CN1CCN(S(=O)(=O)Cc2ccc(-c3ccccc3)cc2)CC1)c1ccccc1` [IV-56, N^1-phenacyl-N^4-(4-phenylbenzylsulfonyl) piperazine], the ILS at 20 mg/kg in experiment [2] (setting [3]) was 25%.

Consider `N#Cc1ccccc1-c1ccc(CS(=O)(=O)N2CCN(CC(=O)c3ccccc3)CC2)cc1` [IV-58, N^1-phenacyl-N^4-[4-(2-cyanophenyl)benzylsulfonyl] piperazine], for which, in experiment [2] (setting [3]), the ILS at 20 mg/kg stood at 25%.

For `N#Cc1ccccc1-c1ccc(CS(=O)(=O)N2CCN(CC(=O)NCc3ccccc3)CC2)cc1` [IV-61, N^1-[2-(benzylamino)-2-oxo-ethyl]-N^4-[4-(2-cyanophenyl)benzylsulfonyl] piperazine], in experiment [2] (setting [3]), the ILS at 20 mg/kg stood at 22%.

As to `O=C(CN1CCN(S(=O)(=O)Cc2ccccc2CS(=O)(=O)c2ccccc2)CC1)NCc1ccccc1` [IV-62, N^1-[2-(benzylamino)-2-oxo-ethyl]-N^4-[2-(benzenesulfonylmethyl)benzylsulfonyl] piperazine], the ILS at 20 mg/kg in experiment [2] (setting [3]) was 36%.

Regarding `O=C(CN1CCN(S(=O)(=O)Cc2ccc([N+](=O)[O-])cc2)CC1)NCc1ccccc1` [IV-64, N^1-[2-(benzylamino)-2-oxo-ethyl]-N^4-(4-nitrobenzylsulfonyl) piperazine], in experiment [2] (setting [3]), the ILS at 20 mg/kg is 20%.

Take `CC(C(O)c1ccc(O)cc1)N1CCC(Cc2ccccc2)CC1` (stereo not drawn) [Ifenprodil, reference compound]: the “antagonism % (restrain rate of contraction of preparations)” value in experiment [1] is recorded as 41%(10^−5).

Regarding `CNC1(c2ccccc2Cl)CCCCC1=O` (stereo not drawn) [Ket, Ketamine, reference compound], the “antagonism (value printed as a concentration in the antagonism % column)” value in experiment [1] (positive control, unit not given) is recorded as 5.61 × 10^−7.

As for `N[C@@H](CCC(=O)O)C(=O)O` [L-Glu, reference compound], in experiment [1] (unit not given), the excitation is reported as 3.89 × 10^−5.

Source of the values: patent US7326710B2, “Aralkyl formyl-alkyl piperazine derivatives and their uses as a cerebral nerve protective agent” (Shanghai Institute of Pharmaceutical Industry, priority 2002, dated 2008).
